Experimental data as given in ChEMBL document CHEMBL5442219.

Tests used:
Settings in all cases: Compound concentration 10 µM
[1] = molecular target: Histamine H3 receptor (Homo sapiens) (UniProt Q9Y5N1)
[2] = molecular target: Histamine H4 receptor (Homo sapiens) (UniProt Q9H3N8)
[3] = molecular target: Histamine H1 receptor (Homo sapiens) (UniProt P35367)
[4] = molecular target: 5-hydroxytryptamine receptor 2A (Homo sapiens) (UniProt P28223)
[5] = molecular target: Sodium-dependent noradrenaline transporter (Homo sapiens) (UniProt P23975)
Chain of Sodium-dependent noradrenaline transporter (Homo sapiens) (P23975 whole entry): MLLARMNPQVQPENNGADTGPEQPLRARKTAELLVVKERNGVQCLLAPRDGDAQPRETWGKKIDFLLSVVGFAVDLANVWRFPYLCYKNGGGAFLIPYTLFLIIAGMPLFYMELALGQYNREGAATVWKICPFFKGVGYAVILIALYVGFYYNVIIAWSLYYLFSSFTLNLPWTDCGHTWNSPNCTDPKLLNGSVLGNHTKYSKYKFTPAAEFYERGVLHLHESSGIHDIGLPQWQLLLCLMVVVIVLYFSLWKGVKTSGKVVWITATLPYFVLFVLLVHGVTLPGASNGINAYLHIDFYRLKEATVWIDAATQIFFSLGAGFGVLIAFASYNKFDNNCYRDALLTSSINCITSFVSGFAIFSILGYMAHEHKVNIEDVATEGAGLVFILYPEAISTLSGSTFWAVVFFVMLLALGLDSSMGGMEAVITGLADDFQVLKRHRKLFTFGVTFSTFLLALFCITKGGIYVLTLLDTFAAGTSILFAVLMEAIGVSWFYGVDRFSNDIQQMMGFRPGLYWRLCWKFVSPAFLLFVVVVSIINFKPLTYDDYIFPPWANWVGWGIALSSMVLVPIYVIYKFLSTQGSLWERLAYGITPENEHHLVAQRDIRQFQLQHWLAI

[6] = molecular target: T1, 5-hydroxytryptamine receptor 1A (Homo sapiens) (UniProt P08908)
T1 sequence (whole entry): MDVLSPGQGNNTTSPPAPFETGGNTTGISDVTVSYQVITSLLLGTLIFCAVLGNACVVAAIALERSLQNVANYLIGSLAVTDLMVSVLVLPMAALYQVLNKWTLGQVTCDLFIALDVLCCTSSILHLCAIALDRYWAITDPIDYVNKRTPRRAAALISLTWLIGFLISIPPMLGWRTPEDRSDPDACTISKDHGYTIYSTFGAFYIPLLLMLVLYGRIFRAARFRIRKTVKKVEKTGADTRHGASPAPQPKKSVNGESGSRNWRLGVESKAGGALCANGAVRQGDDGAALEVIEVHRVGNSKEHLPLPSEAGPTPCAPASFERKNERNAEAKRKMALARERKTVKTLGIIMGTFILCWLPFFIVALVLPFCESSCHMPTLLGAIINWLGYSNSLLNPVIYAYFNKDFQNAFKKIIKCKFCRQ

[7] = molecular target: Sigma non-opioid intracellular receptor 1 (Homo sapiens) (UniProt Q99720)
[8] = molecular target: Delta-type opioid receptor (Homo sapiens) (UniProt P41143)
Chain of Delta-type opioid receptor (Homo sapiens) (P41143 whole entry): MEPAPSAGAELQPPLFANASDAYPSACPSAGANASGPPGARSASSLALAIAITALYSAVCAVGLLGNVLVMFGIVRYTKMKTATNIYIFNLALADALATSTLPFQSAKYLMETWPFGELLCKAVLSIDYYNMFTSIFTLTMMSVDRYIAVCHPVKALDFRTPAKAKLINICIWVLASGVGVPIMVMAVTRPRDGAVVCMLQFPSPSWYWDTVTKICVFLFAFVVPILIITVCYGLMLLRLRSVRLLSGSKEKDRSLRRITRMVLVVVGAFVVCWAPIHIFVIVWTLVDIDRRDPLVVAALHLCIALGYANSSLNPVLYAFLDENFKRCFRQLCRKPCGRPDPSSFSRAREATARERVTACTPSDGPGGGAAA

[9] = molecular target: D(3) dopamine receptor (Homo sapiens) (UniProt P35462)
Chain of D(3) dopamine receptor (Homo sapiens) (P35462 whole entry): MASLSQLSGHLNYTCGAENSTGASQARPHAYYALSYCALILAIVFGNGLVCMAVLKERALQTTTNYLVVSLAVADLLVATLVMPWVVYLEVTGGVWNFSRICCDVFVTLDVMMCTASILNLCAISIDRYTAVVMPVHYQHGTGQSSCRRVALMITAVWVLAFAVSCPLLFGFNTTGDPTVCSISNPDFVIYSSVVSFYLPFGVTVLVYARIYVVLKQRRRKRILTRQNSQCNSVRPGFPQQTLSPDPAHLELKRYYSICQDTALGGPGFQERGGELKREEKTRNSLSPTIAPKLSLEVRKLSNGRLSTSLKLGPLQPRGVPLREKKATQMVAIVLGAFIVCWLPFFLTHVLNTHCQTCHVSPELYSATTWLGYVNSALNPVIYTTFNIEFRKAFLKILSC

[10] = molecular target: D(2) dopamine receptor (Homo sapiens) (UniProt P14416)
[11] = molecular target: T2, Muscarinic acetylcholine receptor M4 (Homo sapiens) (UniProt P08173)
T2 sequence (whole entry): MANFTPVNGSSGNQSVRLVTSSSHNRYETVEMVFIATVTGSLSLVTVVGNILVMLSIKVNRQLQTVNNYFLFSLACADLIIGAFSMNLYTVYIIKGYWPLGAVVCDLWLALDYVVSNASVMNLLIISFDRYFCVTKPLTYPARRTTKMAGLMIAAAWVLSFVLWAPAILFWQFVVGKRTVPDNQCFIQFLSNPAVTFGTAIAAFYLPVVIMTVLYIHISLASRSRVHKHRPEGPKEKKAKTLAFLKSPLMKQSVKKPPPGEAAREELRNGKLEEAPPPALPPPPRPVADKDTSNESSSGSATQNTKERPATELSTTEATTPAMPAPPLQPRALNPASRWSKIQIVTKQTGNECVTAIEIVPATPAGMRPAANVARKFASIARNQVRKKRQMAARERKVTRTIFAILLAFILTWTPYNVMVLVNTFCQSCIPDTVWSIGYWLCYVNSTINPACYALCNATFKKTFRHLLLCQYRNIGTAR

[12] = molecular target: T3, Alpha-1D adrenergic receptor (Homo sapiens) (UniProt P25100)
T3 sequence (whole entry): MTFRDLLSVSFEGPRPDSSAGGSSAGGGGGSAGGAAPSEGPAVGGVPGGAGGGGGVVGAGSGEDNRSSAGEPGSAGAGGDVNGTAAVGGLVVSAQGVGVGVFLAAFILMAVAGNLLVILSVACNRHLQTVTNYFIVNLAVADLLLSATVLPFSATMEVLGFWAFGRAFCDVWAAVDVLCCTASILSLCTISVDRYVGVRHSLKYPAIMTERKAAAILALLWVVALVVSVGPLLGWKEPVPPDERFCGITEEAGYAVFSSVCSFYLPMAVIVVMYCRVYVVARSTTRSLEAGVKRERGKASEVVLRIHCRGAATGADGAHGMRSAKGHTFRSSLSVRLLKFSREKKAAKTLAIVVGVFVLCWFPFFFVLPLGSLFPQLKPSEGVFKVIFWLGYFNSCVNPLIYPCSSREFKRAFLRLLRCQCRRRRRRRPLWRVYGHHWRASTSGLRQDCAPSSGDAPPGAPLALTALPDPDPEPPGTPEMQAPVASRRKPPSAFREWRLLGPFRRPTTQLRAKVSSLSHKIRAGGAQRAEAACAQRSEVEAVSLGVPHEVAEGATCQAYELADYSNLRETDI

[13] = molecular target: Sodium-dependent dopamine transporter (Homo sapiens) (UniProt Q01959)
[14] = molecular target: T4, Alpha-2B adrenergic receptor (Homo sapiens) (UniProt P18089)
T4 sequence (whole entry): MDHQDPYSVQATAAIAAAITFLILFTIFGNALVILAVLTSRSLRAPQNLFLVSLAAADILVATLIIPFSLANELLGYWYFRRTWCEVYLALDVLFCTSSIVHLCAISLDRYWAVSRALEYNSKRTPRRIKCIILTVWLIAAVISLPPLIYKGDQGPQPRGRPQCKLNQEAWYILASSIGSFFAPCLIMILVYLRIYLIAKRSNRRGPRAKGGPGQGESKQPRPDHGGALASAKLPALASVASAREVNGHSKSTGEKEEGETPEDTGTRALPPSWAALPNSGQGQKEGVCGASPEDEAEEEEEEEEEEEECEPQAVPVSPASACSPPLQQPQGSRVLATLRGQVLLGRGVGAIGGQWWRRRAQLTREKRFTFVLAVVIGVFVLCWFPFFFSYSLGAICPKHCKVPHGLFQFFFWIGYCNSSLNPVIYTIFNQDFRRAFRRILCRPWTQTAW

[15] = molecular target: D(1B) dopamine receptor (Homo sapiens) (UniProt P21918)
Chain of D(1B) dopamine receptor (Homo sapiens) (P21918 whole entry): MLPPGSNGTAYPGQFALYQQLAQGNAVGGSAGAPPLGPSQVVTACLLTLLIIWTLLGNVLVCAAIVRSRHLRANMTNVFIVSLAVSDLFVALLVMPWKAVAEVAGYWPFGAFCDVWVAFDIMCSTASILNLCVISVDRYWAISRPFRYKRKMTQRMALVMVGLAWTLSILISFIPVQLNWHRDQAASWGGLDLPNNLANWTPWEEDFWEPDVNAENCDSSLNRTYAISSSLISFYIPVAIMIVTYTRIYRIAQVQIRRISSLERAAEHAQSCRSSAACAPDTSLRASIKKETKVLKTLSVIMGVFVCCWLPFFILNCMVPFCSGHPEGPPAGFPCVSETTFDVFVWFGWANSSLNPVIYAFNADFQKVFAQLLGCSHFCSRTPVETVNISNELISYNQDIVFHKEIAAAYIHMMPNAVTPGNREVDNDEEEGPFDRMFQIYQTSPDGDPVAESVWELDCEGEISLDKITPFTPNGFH

[16] = molecular target: Beta-1 adrenergic receptor (Homo sapiens) (UniProt P08588)
Chain of Beta-1 adrenergic receptor (Homo sapiens) (P08588 whole entry, looked up): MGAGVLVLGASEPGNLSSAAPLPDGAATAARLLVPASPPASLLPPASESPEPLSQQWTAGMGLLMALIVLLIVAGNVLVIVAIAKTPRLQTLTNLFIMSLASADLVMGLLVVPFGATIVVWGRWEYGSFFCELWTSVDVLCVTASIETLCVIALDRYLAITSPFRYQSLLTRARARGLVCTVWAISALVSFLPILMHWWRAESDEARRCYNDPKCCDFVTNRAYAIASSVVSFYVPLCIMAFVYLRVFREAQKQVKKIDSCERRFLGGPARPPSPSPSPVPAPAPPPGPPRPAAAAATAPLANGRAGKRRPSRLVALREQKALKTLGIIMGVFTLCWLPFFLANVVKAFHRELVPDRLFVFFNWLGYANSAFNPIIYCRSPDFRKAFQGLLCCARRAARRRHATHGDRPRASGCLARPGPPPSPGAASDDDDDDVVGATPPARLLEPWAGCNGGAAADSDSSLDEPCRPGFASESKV

[17] = molecular target: Kappa-type opioid receptor (Homo sapiens) (UniProt P41145)
Chain of Kappa-type opioid receptor (Homo sapiens) (P41145 whole entry): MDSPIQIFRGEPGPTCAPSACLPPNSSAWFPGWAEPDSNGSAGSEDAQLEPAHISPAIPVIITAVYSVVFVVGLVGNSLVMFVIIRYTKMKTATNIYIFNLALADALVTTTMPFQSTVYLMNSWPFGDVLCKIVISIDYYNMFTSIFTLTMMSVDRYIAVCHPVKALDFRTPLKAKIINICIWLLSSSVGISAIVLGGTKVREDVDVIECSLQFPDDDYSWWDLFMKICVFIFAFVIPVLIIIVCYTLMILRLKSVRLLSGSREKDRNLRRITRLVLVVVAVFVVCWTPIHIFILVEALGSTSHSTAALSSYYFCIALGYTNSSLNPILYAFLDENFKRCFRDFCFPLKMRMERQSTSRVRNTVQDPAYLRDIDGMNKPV

[18] = molecular target: D(1A) dopamine receptor (Homo sapiens) (UniProt P21728)
Chain of D(1A) dopamine receptor (Homo sapiens) (P21728 whole entry): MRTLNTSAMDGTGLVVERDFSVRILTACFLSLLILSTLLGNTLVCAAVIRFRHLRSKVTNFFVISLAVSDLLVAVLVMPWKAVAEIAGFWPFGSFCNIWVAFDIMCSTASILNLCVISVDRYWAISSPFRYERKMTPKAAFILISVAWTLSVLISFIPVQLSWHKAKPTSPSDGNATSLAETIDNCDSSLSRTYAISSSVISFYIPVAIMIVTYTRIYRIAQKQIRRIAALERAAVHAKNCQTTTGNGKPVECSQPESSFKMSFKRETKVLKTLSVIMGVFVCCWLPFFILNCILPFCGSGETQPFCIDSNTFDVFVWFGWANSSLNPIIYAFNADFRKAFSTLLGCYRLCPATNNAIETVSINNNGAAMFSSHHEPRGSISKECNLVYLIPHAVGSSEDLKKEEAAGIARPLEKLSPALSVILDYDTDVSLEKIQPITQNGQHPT

[19] = molecular target: 5-hydroxytryptamine receptor 7 (Homo sapiens) (UniProt P34969)
[20] = molecular target: 5-hydroxytryptamine receptor 6 (Homo sapiens) (UniProt P50406)

Chain of Histamine H3 receptor (Homo sapiens) (Q9Y5N1 whole entry): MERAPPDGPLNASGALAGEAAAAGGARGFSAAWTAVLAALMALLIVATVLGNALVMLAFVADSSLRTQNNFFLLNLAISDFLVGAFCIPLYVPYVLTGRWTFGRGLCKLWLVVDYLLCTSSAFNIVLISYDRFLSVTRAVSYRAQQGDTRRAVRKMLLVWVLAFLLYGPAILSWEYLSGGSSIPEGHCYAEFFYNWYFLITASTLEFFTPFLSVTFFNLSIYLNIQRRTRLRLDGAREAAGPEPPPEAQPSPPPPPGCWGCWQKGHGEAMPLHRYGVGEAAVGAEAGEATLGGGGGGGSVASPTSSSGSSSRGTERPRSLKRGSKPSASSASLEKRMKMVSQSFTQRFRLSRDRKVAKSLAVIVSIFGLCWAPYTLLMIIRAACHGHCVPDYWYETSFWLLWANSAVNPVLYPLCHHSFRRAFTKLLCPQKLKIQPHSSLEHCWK
Chain of 5-hydroxytryptamine receptor 2A (Homo sapiens) (P28223 whole entry): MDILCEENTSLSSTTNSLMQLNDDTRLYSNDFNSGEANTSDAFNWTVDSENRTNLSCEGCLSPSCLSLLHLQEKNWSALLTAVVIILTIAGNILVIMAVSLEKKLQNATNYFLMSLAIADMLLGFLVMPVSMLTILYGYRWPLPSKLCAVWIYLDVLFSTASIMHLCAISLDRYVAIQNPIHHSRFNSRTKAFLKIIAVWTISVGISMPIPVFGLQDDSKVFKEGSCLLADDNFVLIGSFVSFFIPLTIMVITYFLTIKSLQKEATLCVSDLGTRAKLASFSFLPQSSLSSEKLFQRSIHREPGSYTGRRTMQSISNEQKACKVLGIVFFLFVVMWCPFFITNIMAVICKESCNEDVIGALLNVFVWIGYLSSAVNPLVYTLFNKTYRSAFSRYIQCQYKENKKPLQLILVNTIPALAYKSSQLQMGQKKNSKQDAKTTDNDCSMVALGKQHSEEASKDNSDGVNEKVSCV
Chain of Histamine H1 receptor (Homo sapiens) (P35367 whole entry): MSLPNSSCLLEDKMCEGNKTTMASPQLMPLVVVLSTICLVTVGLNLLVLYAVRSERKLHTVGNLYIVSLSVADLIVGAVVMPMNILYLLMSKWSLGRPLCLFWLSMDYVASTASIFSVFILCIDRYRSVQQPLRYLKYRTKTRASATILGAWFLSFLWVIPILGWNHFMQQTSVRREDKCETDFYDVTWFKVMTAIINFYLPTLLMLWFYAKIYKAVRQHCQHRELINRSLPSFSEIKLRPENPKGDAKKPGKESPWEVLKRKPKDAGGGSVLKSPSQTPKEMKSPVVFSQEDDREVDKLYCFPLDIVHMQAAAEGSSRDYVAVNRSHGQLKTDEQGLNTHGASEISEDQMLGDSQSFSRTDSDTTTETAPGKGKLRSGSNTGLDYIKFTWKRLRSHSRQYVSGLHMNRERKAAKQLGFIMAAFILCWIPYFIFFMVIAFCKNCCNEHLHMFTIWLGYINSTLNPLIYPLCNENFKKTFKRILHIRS
Chain of Histamine H4 receptor (Homo sapiens) (Q9H3N8 whole entry): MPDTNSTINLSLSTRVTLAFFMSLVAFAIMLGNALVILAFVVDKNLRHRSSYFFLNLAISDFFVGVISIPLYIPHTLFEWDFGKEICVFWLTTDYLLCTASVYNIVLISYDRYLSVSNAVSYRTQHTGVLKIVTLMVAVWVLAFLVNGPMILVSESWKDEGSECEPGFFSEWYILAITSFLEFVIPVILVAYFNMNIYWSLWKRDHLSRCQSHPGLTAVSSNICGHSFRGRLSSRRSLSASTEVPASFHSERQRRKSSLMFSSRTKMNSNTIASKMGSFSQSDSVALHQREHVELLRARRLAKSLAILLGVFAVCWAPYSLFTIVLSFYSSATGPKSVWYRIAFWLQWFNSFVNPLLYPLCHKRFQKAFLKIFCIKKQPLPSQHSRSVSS

Molecule c1cc(CN2CCCNCCNCCCNCC2)ccc1CN1CCCNCCNCCCNCC1 has an inhibition [1] of 80.5%, an inhibition [2] of 11.2% and an inhibition [3] of -5.42%. It also gave an inhibition [4] of 0.83%, an inhibition [5] of 33.4% and an inhibition [6] of -6.66%. For the same molecule, the inhibition [7] was 15.3%, the inhibition [8] was -4.5% and the inhibition [9] was 37.2%. It also gave an inhibition [10] of -1.67%, an inhibition [11] of 41.7% and an inhibition [12] of -0.54%. For the same molecule, the inhibition [13] was 53.6%, the inhibition [14] was -9.59% and the inhibition [15] was -5.65%. It also gave an inhibition [16] of 34.9% and an inhibition [17] of 13.8%.

Cc1ccc(O)c([C@H](CCN(C(C)C)C(C)C)c2ccccc2)c1 was tested, and the inhibition [1] was 4.65%, the inhibition [2] was -9.16% and the inhibition [3] was 83.1%. The inhibition [4] was 11.4%, the inhibition [18] was -4.98% and the inhibition [5] was 29.7%. The inhibition [6] was -6.09%, the inhibition [7] was 90.9% and the inhibition [8] was -8.98%. For the same molecule, the inhibition [9] was 46.2%, the inhibition [10] was 42.6% and the inhibition [11] was 0.61%. It also gave an inhibition [12] of 1.72%, an inhibition [13] of 16.2% and an inhibition [14] of 36.7%. It also gave an inhibition [16] of -3.65% and an inhibition [17] of 31%.

With N#Cc1ccc(NC(=O)Nc2ccccc2Br)c2nn[nH]c12 the inhibition [1] was 3.06%, the inhibition [2] was 25.3% and the inhibition [3] was 0.77%. For the same molecule, the inhibition [4] was -5.61%, the inhibition [18] was 2.97% and the inhibition [5] was 35.6%. The inhibition [6] was 6.16%, the inhibition [7] was 9.64% and the inhibition [8] was 16.4%. It also gave an inhibition [9] of 43.3%, an inhibition [10] of -0.4% and an inhibition [11] of 33.1%. For the same molecule, the inhibition [12] was -7.75%, the inhibition [13] was 59.8% and the inhibition [14] was -2.75%. It also gave an inhibition [15] of -7.18%, an inhibition [16] of 26.6% and an inhibition [17] of 25.6%.

CNC[C@H](O)c1ccc(O)c(O)c1 was tested, and the inhibition [2] was -7.99%, the inhibition [18] was 10.9% and the inhibition [6] was -3.44%. It also gave an inhibition [8] of 6.63%, an inhibition [9] of 47.1% and an inhibition [10] of 15.9%. It also gave an inhibition [19] of -8.3%, an inhibition [12] of 12.1% and an inhibition [13] of 32.7%. The inhibition [15] was -3.14% and the inhibition [16] was 37%.

In the case of O=C(O)C1CN(Cc2ccc(OCc3ccc(Cl)c(Cl)c3)cc2)C1, the inhibition [1] was -4.42%, the inhibition [2] was -3.72% and the inhibition [3] was 86%. The inhibition [4] was 55.1%, the inhibition [20] was 5.45% and the inhibition [6] was 13.2%. It also gave an inhibition [7] of 76.9%, an inhibition [9] of 39.5% and an inhibition [11] of 29.6%. It also gave an inhibition [19] of -9.54%, an inhibition [12] of -5.42% and an inhibition [13] of 31.9%. It also gave an inhibition [14] of 35.4%, an inhibition [15] of -5.98% and an inhibition [16] of -7.03%. For the same molecule, the inhibition [17] was -7.92%.

Work on N#Cc1c(O)nc(SCc2cccc(F)c2F)nc1C1CC1 yielded an inhibition [1] of 18.8%, an inhibition [2] of 4.02% and an inhibition [4] of -3.85%. It also gave an inhibition [18] of -8.29%, an inhibition [20] of 9.18% and an inhibition [5] of -1.64%. For the same molecule, the inhibition [6] was -4.01%, the inhibition [7] was 18.2% and the inhibition [8] was 7.91%. The inhibition [9] was 2.3%, the inhibition [10] was -6.52% and the inhibition [13] was 45.1%. The inhibition [14] was -6.93%, the inhibition [15] was 28.4% and the inhibition [16] was 28.6%. The inhibition [17] was 3.53%.

O=C(O)C1CN(Cc2ccc(-c3nc4cc(Cc5ccccc5F)ccc4s3)c(F)c2)C1 was tested, and the inhibition [1] was 1.61%, the inhibition [2] was -0.17% and the inhibition [3] was 37.5%. For the same molecule, the inhibition [4] was 9.17%, the inhibition [18] was 2.63% and the inhibition [20] was 8.45%. It also gave an inhibition [5] of 20.8%, an inhibition [6] of 11.5% and an inhibition [7] of 5.12%. For the same molecule, the inhibition [8] was -3.98%, the inhibition [9] was 91% and the inhibition [13] was 30.2%. For the same molecule, the inhibition [15] was -0.27%, the inhibition [16] was 22.9% and the inhibition [17] was 0.93%.

FC(F)(F)c1cccc(-c2noc(-c3cc(-c4ccccc4)c(C(F)(F)F)s3)n2)c1 showed an inhibition [3] of 17%, an inhibition [4] of -1.97% and an inhibition [20] of -0.25%. It also gave an inhibition [6] of 2.88%, an inhibition [7] of -0.34% and an inhibition [10] of 24.7%. The inhibition [11] was -0.35%, the inhibition [19] was 7.06% and the inhibition [12] was 1.55%. For the same molecule, the inhibition [13] was 17.8%, the inhibition [16] was -3.82% and the inhibition [17] was 46.5%.
